Reference: patent publication US20230218563A1, “METHODS FOR TREATING OR PREVENTING CHRONIC KIDNEY DISEASE” (Arthrosi Therapeutics, Inc., priority 2020, published 2023)

What was measured:
[1] = tested on: urine albumin-to-creatinine ratio (UACR); assay: Phase 2a study, UACR in a subject with albuminuria; type: in vivo, human; details: one subject with albuminuria, baseline 96 mg/g; sequential 7-day periods: Compound 1 50 mg (Day 7), Compound 1 50 mg/allopurinol 300 mg (Day 14), allopurinol 300 mg (Day 21)
Text: Urine samples were collected for assessment of uric acid excretion. Laboratory safety tests, vital signs, and electrocardiograms were collected throughout the study.

[2] = tested on: serum uric acid (sUA); assay: Phase 1 single dose study, pharmacodynamics (serum uric acid) in healthy adult males; type: in vivo, human
Method: The dose groups included Cohort 1 (15 mg or placebo, fasted, oral suspension), Cohort 2 (50 mg or placebo, fasted, suspension), Cohort 3 (100 mg or placebo, fasted, oral suspension), Cohort 4 (150 mg or placebo, fasted, oral suspension), Cohort 6 (50 mg or placebo, fed, oral suspension), and Cohort 7 (50 mg or placebo, fasted, oral capsule). […] An additional 8 subjects received placebo.
Decrease in sUA appeared to reach a plateau at 100 mg or lower.

[3] = 15 mg single oral, fasted, 12 h
[4] = 15 mg single oral, fasted, 30 h
[5] = 15 mg single oral, fasted, 36 h
[6] = 15 mg single oral, fasted, 48 h
[7] = 15 mg single oral, fasted, 54 h
[8] = 15 mg single oral, fasted, 60 h
[9] = 15 mg single oral, fasted, 72 h
[10] = 15 mg single oral, fasted, 96 h
[11] = 15 mg single oral, fasted, 120 h
[12] = 50 mg single oral, fasted, Capsule, 6 h
[13] = 50 mg single oral, fasted, Capsule, 12 h
[14] = 50 mg single oral, fasted, Capsule, 24 h
[15] = 50 mg single oral, fasted, Capsule, 30 h
[16] = 50 mg single oral, fasted, Capsule, 36 h
[17] = 50 mg single oral, fasted, Capsule, 48 h
[18] = 50 mg single oral, fasted, Capsule, 54 h
[19] = 50 mg single oral, fasted, Capsule, 60 h
[20] = 50 mg single oral, fasted, Capsule, 72 h
[21] = 50 mg single oral, fasted, Capsule, 96 h
[22] = 50 mg single oral, fasted, Capsule, 120 h
[23] = 50 mg single oral, fasted, 12 h
[24] = 50 mg single oral, fasted, 24 h
[25] = 50 mg single oral, fasted, 30 h
[26] = 50 mg single oral, fasted, 36 h
[27] = 50 mg single oral, fasted, 48 h
[28] = 50 mg single oral, fasted, 54 h
[29] = 50 mg single oral, fasted, 60 h
[30] = 50 mg single oral, fasted, 72 h
[31] = 50 mg single oral, fasted, 96 h
[32] = 50 mg single oral, fasted, 120 h

With `[2H]c1c([2H])c([2H])c2c(C(=O)c3cc(Br)c(O)c(Br)c3)c(C(C)O)oc2c1[2H]` (racemic) [Compound 1, (3,5-dibromo-4-hydroxyphenyl)(2-(1-hydroxyethyl)benzofuran-3-yl-4,5,6,7-d4)methanone] the UACR [1] was 41 mg/g, the “UACR % change from baseline” value [1] was −57.4% and the “Percent change in serum uric acid, mean, time-matched (Day-1) baseline” value (“Percent change in serum uric acid, mean” below) ([2]; 15 mg single oral, fasted, 6 h) was 2.7%. For the same compound, the “Serum uric acid, mean” value ([2]; 15 mg single oral, fasted, 6 h) was 5.4 mg/dL, the “Percent change in serum uric acid, mean” value [2, 3] was 8.7% and the “Serum uric acid, mean” value [2, 3] was 5.1 mg/dL. The “Serum uric acid, mean” value ([2]; 15 mg single oral, fasted, 24 h) was 5.1 mg/dL, the “Percent change in serum uric acid, mean” value [2, 4] was 0.7% and the “Serum uric acid, mean” value [2, 4] was 5.2 mg/dL. The “Percent change in serum uric acid, mean” value [2, 5] was −1.4%, the “Serum uric acid, mean” value [2, 5] was 4.6 mg/dL and the “Percent change in serum uric acid, mean” value [2, 6] was −4.4%. For the same compound, the “Serum uric acid, mean” value [2, 6] was 5.2 mg/dL, the “Percent change in serum uric acid, mean” value [2, 7] was −1.5% and the “Serum uric acid, mean” value [2, 7] was 5.1 mg/dL. The “Percent change in serum uric acid, mean” value [2, 8] was 10.0%, the “Serum uric acid, mean” value [2, 8] was 5.2 mg/dL and the “Percent change in serum uric acid, mean” value [2, 9] was 3.6%. The “Serum uric acid, mean” value [2, 9] was 5.6 mg/dL, the “Percent change in serum uric acid, mean” value [2, 10] was 7.8% and the “Serum uric acid, mean” value [2, 10] was 5.8 mg/dL. For the same compound, the “Percent change in serum uric acid, mean” value [2, 11] was 13.0%, the “Serum uric acid, mean” value [2, 11] was 6.1 mg/dL and the “Percent change in serum uric acid, mean” value [2, 12] was −26.9%. For the same compound, the “Serum uric acid, mean” value [2, 12] was 4.0 mg/dL, the “Percent change in serum uric acid, mean” value [2, 13] was −37.5% and the “Serum uric acid, mean” value [2, 13] was 3.4 mg/dL. The “Percent change in serum uric acid, mean” value [2, 14] was −38.3%, the “Serum uric acid, mean” value [2, 14] was 3.7 mg/dL and the “Percent change in serum uric acid, mean” value [2, 15] was −36.9%. For the same compound, the “Serum uric acid, mean” value [2, 15] was 3.4 mg/dL, the “Percent change in serum uric acid, mean” value [2, 16] was −34.1% and the “Serum uric acid, mean” value [2, 16] was 3.6 mg/dL. For the same compound, the “Percent change in serum uric acid, mean” value [2, 17] was −32.4%, the “Serum uric acid, mean” value [2, 17] was 4.1 mg/dL and the “Percent change in serum uric acid, mean” value [2, 18] was −28.1%. The “Serum uric acid, mean” value [2, 18] was 3.9 mg/dL, the “Percent change in serum uric acid, mean” value [2, 19] was −21.0% and the “Serum uric acid, mean” value [2, 19] was 4.3 mg/dL. For the same compound, the “Percent change in serum uric acid, mean” value [2, 20] was −17.8%, the “Serum uric acid, mean” value [2, 20] was 4.9 mg/dL and the “Percent change in serum uric acid, mean” value [2, 21] was −11.2%. The “Serum uric acid, mean” value [2, 21] was 5.3 mg/dL, the “Percent change in serum uric acid, mean” value [2, 22] was −12.5% and the “Serum uric acid, mean” value [2, 22] was 5.2 mg/dL. The “Percent change in serum uric acid, mean” value ([2]; 50 mg single oral, fasted, 6 h) was −23.8%, the “Serum uric acid, mean” value ([2]; 50 mg single oral, fasted, 6 h) was 4.6 mg/dL and the “Percent change in serum uric acid, mean” value [2, 23] was −33.6%. For the same compound, the “Serum uric acid, mean” value [2, 23] was 3.9 mg/dL, the “Percent change in serum uric acid, mean” value [2, 24] was −42.4% and the “Serum uric acid, mean” value [2, 24] was 3.9 mg/dL. For the same compound, the “Percent change in serum uric acid, mean” value [2, 25] was −33.5%, the “Serum uric acid, mean” value [2, 25] was 4.1 mg/dL and the “Percent change in serum uric acid, mean” value [2, 26] was −33.9%. For the same compound, the “Serum uric acid, mean” value [2, 26] was 3.9 mg/dL, the “Percent change in serum uric acid, mean” value [2, 27] was −35.8% and the “Serum uric acid, mean” value [2, 27] was 4.3 mg/dL. For the same compound, the “Percent change in serum uric acid, mean” value [2, 28] was −32.1%, the “Serum uric acid, mean” value [2, 28] was 4.2 mg/dL and the “Percent change in serum uric acid, mean” value [2, 29] was −24.2%. For the same compound, the “Serum uric acid, mean” value [2, 29] was 4.5 mg/dL, the “Percent change in serum uric acid, mean” value [2, 30] was −26.1% and the “Serum uric acid, mean” value [2, 30] was 5.0 mg/dL. For the same compound, the “Percent change in serum uric acid, mean” value [2, 31] was −9.6%, the “Serum uric acid, mean” value [2, 31] was 6.0 mg/dL and the “Percent change in serum uric acid, mean” value [2, 32] was −4.6%. For the same compound, the “Serum uric acid, mean” value [2, 32] was 6.4 mg/dL, the “Percent change in serum uric acid, mean” value ([2]; 50 mg single oral, fed, 6 h) was −20.3% and the “Serum uric acid, mean” value ([2]; 50 mg single oral, fed, 6 h) was 4.8 mg/dL.
